Data reported in ChEMBL document CHEMBL6074679, “Diastereoselective synthesis and biological evaluation of new fluorine-containing α-aminophosphonates as anticancer agents and scaffold to human urokinase plasminogen activator inhibitors” (Eur J Med Chem, 2025).

Columns and labels:
OVCAR-3 = experiment: Cytotoxicity against human OVCAR-3 cells incubated for 48 hrs by MTT assay; assay type: functional, cell-based; conditions: OVCAR-3, 48 h
HeLa = experiment: Cytotoxicity against human HeLa cells incubated for 48 hrs by MTT assay; assay type: functional, cell-based
MDA-MB-231 = experiment: Cytotoxicity against human MDA-MB-231 cells incubated for 48 hrs by MTT assay; assay type: functional, cell-based; conditions: MDA-MB-231, 48 h
U-87 MG = experiment: Cytotoxicity against human U-87 MG cells incubated for 48 hrs by MTT assay; assay type: functional, cell-based, U-87MG ATCC
HepG2 = experiment: Cytotoxicity against human HepG2 cells incubated for 48 hrs by MTT assay; assay type: functional, cell-based; conditions: HepG2, 48 h
A549 = experiment: Cytotoxicity against human A549 cells incubated for 48 hrs by MTT assay; assay type: functional, cell-based; conditions: A549, 48 h
[1] = Cytotoxicity against human MRC5 cells incubated for 48 hrs by MTT assay; assay type: toxicity, cell-based
SK-OV-3 = experiment: Cytotoxicity against human SK-OV-3 cells incubated for 48 hrs by MTT assay; assay type: functional, cell-based; conditions: SK-OV-3, 48 h
U-118-MG = experiment: Cytotoxicity against human U-118 MG cells incubated for 48 hrs by MTT assay; assay type: functional, cell-based
U-251 = experiment: Cytotoxicity against human U-251MG cells incubated for 48 hrs by MTT assay; assay type: functional, cell-based; conditions: U-251, 48 h
Caco-2 = experiment: Cytotoxicity against human Caco-2 cells incubated for 48 hrs by MTT assay; assay type: functional, cell-based; conditions: Caco-2, 48 h
[2] = target: Urokinase-type plasminogen activator (Homo sapiens, UniProt P00749); experiment: Inhibition of human urokinase uPA using Z-Gly-Gly-Arg-AMC as substrate by fluorescence plate reader assay

| SMILES | IC50 (OVCAR-3) | IC50 (HeLa) | IC50 (MDA-MB-231) | IC50 (U-87 MG) | IC50 (HepG2) | IC50 (A549) | IC50 at 48 h [1] | IC50 (SK-OV-3) | IC50 (U-118-MG) | IC50 (U-251) | IC50 (Caco-2) | IC50 [2] |
| --- | --- | --- | --- | --- | --- | --- | --- | --- | --- | --- | --- | --- |
| CCOP(=O)(OCC)C(N[C@H](C)c1ccccc1)c1ccc(F)cc1F (some centres not stated) | 5.56 µM | 4.11 µM | 11.6 µM | 7.68 µM | 117 µM | 35.4 µM | 16.6 µM | 3.24 µM | 34.6 µM | 5.59 µM | 2.24 µM | – |
| COP(=O)(OC)C(N[C@@H](C)C(C)(C)C)c1ccc(F)cc1F (some centres not stated) | 66.3 µM | 9.85 µM | 165 µM | 40.7 µM | 59.5 µM | 1.82 µM | 82.2 µM | 131 µM | 87.7 µM | 119 µM | 6.44 µM | – |
| COP(=O)(OC)C(N[C@@H](C)C(C)(C)C)c1ccccc1F (some centres not stated) | 51.7 µM | 21.4 µM | 160 µM | 3.27 µM | 59.6 µM | 55.1 µM | 34.4 µM | 21.9 µM | 81.2 µM | 8.95 µM | 1.3 µM | – |
| COP(=O)(OC)C(N[C@@H](C)C(C)(C)C)c1ccc(F)cc1 (some centres not stated) | 81.6 µM | 6.07 µM | 190 µM | 36.3 µM | 6.73 µM | 9.82 µM | 110 µM | 6.77 µM | 38.3 µM | 21 µM | 18.5 µM | 516 µM |
| COc1ccc([C@@H](C)NC(c2ccc(F)cc2)P(=O)(OC(C)C)OC(C)C)cc1 (some centres not stated) | 44.3 µM | 3.18 µM | 33.8 µM | 21.7 µM | 7.74 µM | 37.7 µM | 5.9 µM | 8.41 µM | 18.2 µM | 27 µM | 6.47 µM | 493 µM |
| COP(=O)(OC)C(N[C@@H](C)C(C)(C)C)c1c(F)cc(F)cc1F (some centres not stated) | 13.7 µM | 4.14 µM | 83 µM | 61.1 µM | 92.1 µM | 48.6 µM | 15 µM | 7.08 µM | 122 µM | 144 µM | 72.3 µM | 720 µM |
| COc1ccc([C@@H](C)NC(c2c(F)c(F)c(F)c(F)c2F)P(=O)(OC)OC)cc1 (some centres not stated) | 13.7 µM | 52.4 µM | 79.2 µM | 45.1 µM | 35.5 µM | 75.1 µM | 2.17 µM | 4.36 µM | 31.4 µM | 53.1 µM | 6.93 µM | 357 µM |
| CCOP(=O)(OCC)C(N[C@H](C)c1ccc(OC)cc1)c1ccc(F)cc1F (some centres not stated) | 0.64 µM | 32.4 µM | 156 µM | 59.2 µM | 7.79 µM | 21.6 µM | 4.71 µM | 1.63 µM | 43.6 µM | 53.2 µM | 47.4 µM | 280 µM |
| COc1ccc([C@@H](C)NC(c2ccccc2F)P(=O)(OC)OC)cc1 (some centres not stated) | 15.7 µM | 5.18 µM | 167 µM | 9.24 µM | 72.6 µM | 43.3 µM | 29.1 µM | 338 µM | > 500 µM | 8.7 µM | 1.3 µM | 114 µM |
| COP(=O)(OC)C(N[C@H](C)c1ccccc1)c1ccc(F)cc1F (some centres not stated) | 2.47 µM | 5.35 µM | 170 µM | 57 µM | 47.9 µM | 5.45 µM | 5.24 µM | 17.4 µM | 67.7 µM | 110 µM | 8.63 µM | – |
| CCOP(=O)(OCC)C(N[C@H](C)c1ccc(OC)cc1)c1c(F)c(F)c(F)c(F)c1F (some centres not stated) | > 500 µM | 3.92 µM | 19.1 µM | 9.34 µM | 45.3 µM | 44.6 µM | 27.2 µM | 5.37 µM | 14.4 µM | 78.9 µM | 1.74 µM | 416 µM |
| CCOP(=O)(OCC)C(N[C@@H](C)C(C)(C)C)c1ccc(F)cc1 (some centres not stated) | 71.6 µM | 13 µM | 59.3 µM | 11 µM | 34.5 µM | 49.2 µM | 13.8 µM | 15.3 µM | 64.2 µM | 24.4 µM | 51.4 µM | – |
| COP(=O)(OC)C(N[C@H](C)c1ccccc1)c1c(F)c(F)c(F)c(F)c1F (some centres not stated) | 13 µM | 4.09 µM | 94.3 µM | 5.45 µM | 55.1 µM | 49.6 µM | 84.1 µM | 28.2 µM | 51.2 µM | 34.1 µM | 6.02 µM | – |
| CC(C)OP(=O)(OC(C)C)C(N[C@@H](C)C(C)(C)C)c1ccc(F)cc1F (some centres not stated) | 194 µM | 5.37 µM | 9.89 µM | 7.78 µM | 23.6 µM | 72 µM | 47.8 µM | 8.63 µM | 150 µM | 3.97 µM | 10.5 µM | – |
| COc1ccc([C@@H](C)NC(c2c(F)cc(F)cc2F)P(=O)(OC)OC)cc1 (some centres not stated) | 78.6 µM | 17.5 µM | 27 µM | 22.6 µM | 13.2 µM | 33.2 µM | 5.86 µM | 4.2 µM | 70 µM | 47.8 µM | 14.6 µM | – |
| CCOP(=O)(OCC)C(N[C@@H](C)C(C)(C)C)c1ccc(F)cc1F (some centres not stated) | 48.3 µM | 4.46 µM | 5.58 µM | 10.5 µM | 18.4 µM | 18 µM | 107 µM | 110 µM | 35.5 µM | 48.6 µM | 27.4 µM | – |
| CCOP(=O)(OCC)C(N[C@@H](C)C(C)(C)C)c1c(F)cc(F)cc1F (some centres not stated) | 55.1 µM | 10.6 µM | 39.3 µM | 11.5 µM | 46.7 µM | 33.3 µM | 36.5 µM | 16.6 µM | 40.7 µM | 7.57 µM | 0.39 µM | 671 µM |
| COc1ccc([C@@H](C)NC(c2ccc(F)cc2F)P(=O)(OC)OC)cc1 (some centres not stated) | 100 µM | 2.54 µM | 11 µM | 9.92 µM | 58.5 µM | 53.1 µM | 10.6 µM | 3.71 µM | 183 µM | 19 µM | 28.5 µM | 147 µM |
| COc1ccc([C@@H](C)NC(c2ccc(F)cc2F)P(=O)(OC(C)C)OC(C)C)cc1 (some centres not stated) | 3.57 µM | 5.07 µM | 80.9 µM | 3.72 µM | 46.2 µM | 2.87 µM | 1.82 µM | 9.35 µM | 67.6 µM | 3.51 µM | 0.72 µM | 620 µM |
| COP(=O)(OC)C(NC(C)C(C)(C)C)c1ccc(F)cc1 (racemic) | 104 µM | 6.28 µM | 230 µM | 39.8 µM | 5.57 µM | 7.95 µM | 90.7 µM | 8.75 µM | 45.8 µM | 16.5 µM | 16.1 µM | – |
| O=c1[nH]c(=O)n([C@H]2C[C@H](O)[C@@H](CO)O2)cc1F [FLOXURIDINE] | 24.5 µM | – | 5.65 µM | 18.5 µM | 37.9 µM | 22.8 µM | – | 12.8 µM | – | 17.8 µM | – | – |
